What was measured:
HIV derived RRE RNA = experiment: heterologous hybridization inhibition assay with RRE RNA; format: binding; settings: radiolabeled RRE RNA, rRNA competitor
HBV = experiment: antiviral assay in 2.2.15 cells producing HBV (virion DNA dot blot); format: cell-based, Hepatitis B virus; settings: extra-cellular virus reduced by 50%; 2.2.15 cells, 9 days treatment; read-out: Antiviral EC50
Excerpt: Several cell lines and cell culture assays have been developed to identify potential therapeutics effective against chronic HBV infection. One of these cell lines, 2.2.15, has been used in a standardized assay that has repeatedly proven to be an accurate model of chronic cellular HBV replication and a predictive model of antiviral response for chronic hepadnaviral infection in vivo. 2.2.15 cells contain copies of the complete HBV genome integrated into the cell's genome, and 2.2.15 cells are not susceptible to infection by HBV. (Sells, M. A. et al., J. Virol. 62 (8): 2836-2844 (1988)). These cells express HBV genes producing complete HBV particles capable of infecting chimpanzees (Acs, G. et al., Proc. Natl. Acad. Sci. USA 84 (13): 4641-4644 (1987)). Briefly, 2.2.15 cells are cultured and pretreated with a test compound for about 9 days, at which point the media are harvested and subjected to dot-blot hybridization to detect HBV virion DNA.
The antiviral activity of the compounds of the present invention is measured by the methods described in Korba and Gering, Antiviral Res. 19: 55-70 (1992).
This assay format is well suited to the screening of test compounds for potential antiviral activity. The assay provides a threshold assessment of antiviral activity by measuring (i) the levels of HBV virion release from the cells and (ii) cytotoxicity. Two rows of cells were used for each compound, and 4 rows for the assay controls (two for untreated, and two for positive antiviral control, e.g., 3TC). After incubating in the presence of test compound for 9 days, the media were harvested, transferred to 96-well U-bottom plates, and centrifuged. The supernatants were transferred to tubes for dot blot hybridization analysis of HBV virion DNA. The medium was aspirated off of the toxicity plates and discarded. Toxicity plates were then incubated with neutral red dye (MTT can also be used if preferred), washed with DPBS, developed with an acetic acid-ethanol solution, and assayed in a plate reader.
1. 2.2.15 cells were seeded into 96-well, flat bottom tissue culture plates as described above. Duplicate plates were used for the antiviral treatments for each test compound (up to 8 compounds per pair of plates); after three to four days, cells were confluent and medium was yellow in color; the medium was removed and replaced with 100 μl RP2 24 hours before the beginning of drug treatment.
i) For each compound, a total of 4 concentrations were examined; this required 9 sets of 4 sterile, 1.1 ml minitubes (36 tubes per compound). Into the first tube of each set, sufficient compound was aliquoted to make up 700 μl (for 10-fold dilution series) or 980 μl (for 3.3-fold dilution series) of the highest test concentration; the other tubes were left empty.
i) For a 10-fold dilution series: to the first (compound containing) tube was added 700 μl (175 μl×4). 630 μl (210 μl×3) RP2 culture medium was added to the remaining 3 tubes. The first tube was mixed by pipeting up and down with a pipetman (a multichannel pipetman permits the simultaneous processing of multiple compounds). 70 μl of test compound-containing medium were serially transferred from the first tube to the other 3 tubes, taking care to thoroughly mix each tube before transferring medium;
b) 100 μl of each dilution of every compound was added to each of 6 wells (3 wells per plate) using the configuration listed below as an example. The lowest concentration was added first, and the same tips were used to add the higher concentrations. The untreated cells received 100 μl RP2 per well (untreated cells have to be carried on only one pair of the antiviral assay plates).
c) Treatments were repeated daily for 9 days. For the last day of treatment, and additional 200 μl RP2 were added to each well of the antiviral assay plates after the wells are treated with the test compounds (a total of 300 μl medium per well).
6. […]

SMILES	IC50 (HIV derived RRE RNA) [µM]	EC50 (HBV) [µM]	RRE + rRNA IC50 (μM) (HIV derived RRE RNA)
O=C(NNc1nc(Nc2ccccc2)nc(Nc2cccc(C(F)(F)F)c2)n1)c1cccc(Br)c1 [Compound 220]	918	> 100	–
O=C(CSc1nc(SCC(=O)Nc2ccccc2C(F)(F)F)nc(SCC(=O)Nc2ccccc2C(F)(F)F)n1)Nc1ccccc1C(F)(F)F [Compound 212]	–	> 100	inactive
Cc1ccc(Nc2nc(NCc3ccccc3)nc(NN=Cc3cc(Cl)ccc3O)n2)cc1C [Compound 226]	422	> 100	–
Cc1ccc(Nc2nc(NCc3ccccc3)nc(Nc3ccc([N+](=O)[O-])cc3)n2)cc1C [Compound 194]	–	> 100	inactive
Cc1[nH]c2ccccc2c1C=NNc1nc(Nc2ccccc2)nc(Nc2ccc([N+](=O)[O-])cc2)n1 [Compound 6]	–	0.3	inactive
COc1ccc(Nc2nc(NCc3cccc([N+](=O)[O-])c3)nc(NCc3cc(F)ccc3F)n2)cc1OC [Compound 225]	–	> 100	inactive
COc1ccc(C=NNc2nc(NCc3ccccc3)nc(Nc3ccccc3)n2)cc1 [Compound 165]	–	3.8	inactive
CCCCN(CCCC)c1nc(N/N=C/c2cc(I)cc(I)c2O)nc(Nc2ccc([N+](=O)[O-])cc2)n1 [Compound 8]	–	> 100	inactive
CCN(CC)c1nc(NN=Cc2ccc(Cl)c([N+](=O)[O-])c2)nc(Nc2cc(C)ccc2C)n1 [Compound 214]	–	> 100	inactive
Oc1ccc(Br)cc1C=NNc1nc(Nc2cccc(C(F)(F)F)c2)nc(N2CCOCC2)n1 [Compound 246]	–	5.2	inactive
CNc1nc(NN=Cc2ccccc2C(F)(F)F)nc(Nc2cccc(C(F)(F)F)c2)n1 [Compound 253]	659	18	–
O=[N+]([O-])c1ccc(Nc2nc(NN=Cc3ccc(Br)cc3)nc(N3CCCCCC3)n2)cc1 [Compound 117]	–	4.2	inactive
Oc1ccc(Br)cc1C=NNc1nc(Nc2cccc(Br)c2)nc(N2CCOCC2)n1 [Compound 232]	–	> 100	inactive
COc1c(C=NNc2nc(NCc3ccccc3)nc(Nc3ccccc3)n2)cccc1[N+](=O)[O-] [Compound 162]	–	0.923	inactive
COc1ccc(Nc2nc(NCCc3ccccc3)nc(N(C)C)n2)cc1OC [Compound 252]	–	9.5	inactive
FC(F)(F)c1cccc(Nc2nc(Nc3cccc(Cl)c3)nc(N3CCOCC3)n2)c1 [Compound 247]	–	> 100	inactive
CNc1nc(NN=Cc2cc(Cl)ccc2O)nc(Nc2ccccc2)n1 [Compound 245]	–	> 100	inactive
O=[N+]([O-])c1ccc(Nc2nc(NCc3ccccc3)nc(N3CCOCC3)n2)cc1 [Compound 231]	–	> 100	inactive
Cc1ccc(Nc2nc(NCc3ccccc3)nc(NN=Cc3cc(Br)cc(Br)c3O)n2)cc1C [Compound 219]	–	> 100	inactive
Cc1ccc(Nc2nc(NCc3ccccc3)nc(NN=Cc3ccccc3F)n2)cc1C [Compound 228]	–	> 100	inactive
Cc1ccc(Nc2nc(NNC(=O)c3ccccc3O)nc(Oc3ccc([N+](=O)[O-])cc3)n2)cc1C [Compound 250]	–	> 100	inactive
Cc1ccc(Nc2nc(NN=Cc3ccc(Cl)cc3)nc(N3CCOCC3)n2)cc1Cl [Compound 196]	–	> 100	inactive
CC(=NNc1nc(Nc2ccccc2)nc(N2CCCC2)n1)c1ccc(F)cc1 [Compound 227]	–	> 100	inactive
CCN(CC)c1nc(NN=Cc2c(O)ccc3ccccc23)nc(Nc2ccccc2)n1 [Compound 171]	–	5	inactive

Source: patent US6335339B1, “Triazine antiviral compounds” (Scriptgen Pharmaceuticals, Inc., priority 1998, dated 2002)
